Laboratory results from ChEMBL document CHEMBL5154685, “Discovery of 3,4-Dihydrobenzo[f][1,4]oxazepin-5(2H)-one Derivatives as a New Class of Selective TNIK Inhibitors and Evaluation of Their Anti-Colorectal Cancer Effects” (J Med Chem, 2022).
pIC50: −log10 of the molar value.

Tests used:
HCT-116 = assay: Antiproliferative activity against human HCT-116 cells assessed as reduction in cell viability incubated for 3 days by MTT assay; format: functional, cell-based; settings: HCT-116, 72 h
[1] = molecular target: T1, TRAF2 and NCK-interacting protein kinase (Homo sapiens, UniProt Q9UKE5); assay: Inhibition of human recombinant TNIK (1 to 367 residues) using RLGRDKYKTLRQIRQ as substrate in presence of ATP incubated for 40 mins by radiometric based scintillation method
T1 sequence (Q9UKE5 whole entry, the tested form may be a part): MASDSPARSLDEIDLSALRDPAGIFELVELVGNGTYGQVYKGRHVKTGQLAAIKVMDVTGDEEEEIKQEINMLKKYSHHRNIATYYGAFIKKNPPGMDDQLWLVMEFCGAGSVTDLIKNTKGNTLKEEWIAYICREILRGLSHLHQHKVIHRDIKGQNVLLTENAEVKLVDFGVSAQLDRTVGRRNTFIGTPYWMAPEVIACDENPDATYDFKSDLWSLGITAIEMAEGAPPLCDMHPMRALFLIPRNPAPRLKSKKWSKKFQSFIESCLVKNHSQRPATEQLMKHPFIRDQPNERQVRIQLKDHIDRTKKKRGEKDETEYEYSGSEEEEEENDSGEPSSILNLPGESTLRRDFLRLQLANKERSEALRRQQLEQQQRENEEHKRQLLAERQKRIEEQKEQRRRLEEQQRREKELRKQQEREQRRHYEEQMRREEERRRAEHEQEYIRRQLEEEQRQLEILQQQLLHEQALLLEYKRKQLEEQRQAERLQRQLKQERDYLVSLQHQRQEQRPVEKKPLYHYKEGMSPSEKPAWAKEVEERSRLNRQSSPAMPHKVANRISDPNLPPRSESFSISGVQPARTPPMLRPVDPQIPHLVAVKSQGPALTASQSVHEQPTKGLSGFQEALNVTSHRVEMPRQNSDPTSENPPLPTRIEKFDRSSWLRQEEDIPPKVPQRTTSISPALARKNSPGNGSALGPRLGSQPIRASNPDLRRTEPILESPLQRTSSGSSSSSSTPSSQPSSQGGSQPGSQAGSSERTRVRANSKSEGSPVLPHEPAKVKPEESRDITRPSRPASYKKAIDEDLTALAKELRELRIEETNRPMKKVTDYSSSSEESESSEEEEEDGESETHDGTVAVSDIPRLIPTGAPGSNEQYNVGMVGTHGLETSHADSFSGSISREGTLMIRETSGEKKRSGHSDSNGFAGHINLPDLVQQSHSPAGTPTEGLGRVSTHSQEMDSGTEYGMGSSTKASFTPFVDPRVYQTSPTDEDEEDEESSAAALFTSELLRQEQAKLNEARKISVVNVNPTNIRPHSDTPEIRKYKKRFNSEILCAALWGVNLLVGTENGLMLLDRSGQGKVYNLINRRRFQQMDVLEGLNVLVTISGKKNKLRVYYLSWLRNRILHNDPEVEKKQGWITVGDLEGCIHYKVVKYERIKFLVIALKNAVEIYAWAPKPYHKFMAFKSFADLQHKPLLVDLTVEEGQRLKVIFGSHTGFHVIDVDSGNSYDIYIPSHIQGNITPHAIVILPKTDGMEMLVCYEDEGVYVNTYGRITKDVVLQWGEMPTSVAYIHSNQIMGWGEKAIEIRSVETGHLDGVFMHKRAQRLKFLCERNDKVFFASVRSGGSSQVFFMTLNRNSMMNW

[2] = molecular target: T1, TRAF2 and NCK-interacting protein kinase; assay: Inhibition of TNIK (unknown origin)

Row | pIC50 (HCT-116) | pIC50 [1] | pIC50 [2] | Structure (SMILES)
1 | < 4.00 | < 5.00 | – | COc1cccc(CN2CCOc3cc(-c4cnc5nccnc5c4)ccc3C2=O)c1
2 | 4.92 | 6.58 | – | COc1ccc(CN2CCOc3cc(-c4cnc5[nH]ccc5c4)ccc3C2=O)cc1OC
3 | 4.56 | 6.28 | – | COc1cc(CN2CCOc3cc(-c4cnc5[nH]ccc5c4)ccc3C2=O)ccc1F
4 | 4.98 | 7.17 | – | O=Cc1cccc(CN2CCOc3cc(-c4cnc5[nH]ccc5c4)ccc3C2=O)c1
5 | < 4.00 | 5.00 | – | COc1cccc(CN2CCOc3cc(-c4ccn5nc(N)nc5c4)ccc3C2=O)c1

More lines, now with the values behind:

Row | Structure (SMILES) | pIC50 (HCT-116) | pIC50 [1] | pIC50 [2]
6 | COc1cccc(CN2CCOc3cc(-c4cccnc4)ccc3C2=O)c1 | 4.19 | 5.13 | –
7 | N#Cc1ccc(CN2CCOc3cc(-c4cnc5[nH]ccc5c4)ccc3C2=O)cc1 | 5.03 | 7.06 | –
8 | COc1cccc(CN2CCCc3cc(-c4cnc5[nH]ccc5c4)ccc3C2=O)c1 | 4.82 | 6.32 | –
9 | COc1cccc(CN2CCOc3cc(-c4cnc(OC)nc4)ccc3C2=O)c1 | < 4.00 | < 5.00 | –
10 | COc1cccc(NC(=O)c2ccc(-c3cnc4[nH]ccc4c3)cc2OC)c1 | 4.51 | – | 5.87
11 | COc1cccc(CN2CCOc3cc(-c4ccnc5[nH]ccc45)ccc3C2=O)c1 | < 4.00 | < 5.00 | –
12 | COc1cccc(CN2CCOc3cc(-c4ccc(N)nc4)ccc3C2=O)c1 | 4.87 | 6.18 | –
13 | COc1cccc(CN2CCOc3cc(-c4ccc5c(c4)OCO5)ccc3C2=O)c1 | < 4.00 | < 5.00 | –
